Assays:
recombinant human GSK3β = recombinant human GSK3β (Homo sapiens, UniProt P49841); experiment: In vitro enzymatic assay for inhibition of GSK3β (Kinase-Glo Max luminescence); type: biochemical; conditions: 10 uM ATP, 0.1 mg/ml GSKtide, 30° C. 40 minutes, read-out: Potency Beta
Method: (§1) Enzymatic activities using recombinant human GSK3 using an in vitro enzymatic assay for inhibition GSK3α and GSK3β.
(§2) The assay was performed using Kinase-Glo Max luminescence kinase assay kit (Promega). It measures kinase activity by quantitating the amount of ATP remaining in solution following a kinase reaction. The luminescent signal from the assay is correlated with the amount of ATP present and is inversely correlated with the amount of kinase activity. The compounds were diluted in 10% DMSO and 5 μl of the dilution was added to a 50 μl reaction so that the final concentration of DMSO is 1% in all of reactions. The enzymatic reactions were conducted at 30° C. for 40 minutes. The 50 μl reaction mixture contains 40 mM Tris, pH 7.4, 10 mM MgCl2, 0.1 mg/ml BSA, 2 mM DTT, 0.1 mg/ml GSKtide substrate, 10 uM ATP and GSK3. After the enzymatic reaction, 50 μl of Kinase-Glo Max Luminescence kinase assay solution (Promega) was added to each reaction and incubate the plate for 15 minutes at room temperature. Luminescence signal was measured using a BioTek Synergy 2 microplate reader.
(§3) Kinase activity assays were performed in duplicate at each concentration. The luminescence data were analyzed using the computer software, Graphpad Prism. The difference between luminescence intensities in the absence of Kinase (Lut) and in the presence of Kinase (Luc) was defined as 100% activity (Lut−Luc). Using luminescence signal (Lu) in the presence of the compound, % activity was calculated as: % activity={(Lut−Lu)/(Lut−Luc)}×100%, where Lu=the luminescence intensity in the presence of the compound (all percent activities below zero were shown zero in the table).
(§4) The values of % activity versus a series of compound concentrations were then plotted using non-linear regression analysis of Sigmoidal dose-response curve generated with the equation Y=B+(T−B)/1+10((Log EC50−X)×Hill Slope), where Y=percent activity, B=minimum percent activity, T=maximum percent activity, X=logarithm of compound and Hill Slope=slope factor or Hill coefficient. The IC50 value was determined by the concentration causing a half-maximal percent activity.

Lgr5-positive cells = experiment: Expansion of Lgr5-positive cells (cochlear stem cell expansion, 3D Matrigel culture, flow cytometry for Lgr5-GFP); type: cell-based, mouse; conditions: for EC50: Mus musculus, 240 h, Lgr5-positive cell expansion, cochlear cells of neonatal Lgr5-EGFP-IRES-Cre-ER mice, 10 days in culture, read-out: Potency; for % of Cells: percentage of Lgr5-GFP-positive cells after 10 days (D10) in culture, flow cytometer
Method: Lgr5-EGFP-IRES-Cre-ER mice (Barker et al., 2007) (http://jaxmice.jax.org/strain/008875.html) are used to analyze the effects of small molecules on cochlear stem cell expansion.
Isolation of stem cells from the inner ear: All animal studies are conducted under an approved institutional protocol according to National Institutes of Health guidelines. For experiments with neonatal mice (postnatal days 1-3), the cochleae are dissected in HBSS and the organ of Corti are separated from the stria vascularis and the modiolus. The organs of Corti are then treated with Cell Recovery Solution (Corning) for 1 h to separate cochlear epithelium from the underlying mesenchyme. Epithelia are then collected and treated with TrypLE (Life Technologies) for 15-20 minutes at 37° C. Single cells obtained by mechanical trituration are filtered (40 μm) and suspended in Matrigel (Corning) for 3D culture.
Cells are cultured in a 1:1 mixture of DMEM and F12, supplemented with Glutamax (GIBCO), N2, B27 (Invitrogen), EGF (50 ng/ml; Chemicon), bFGF (50 ng/ml; Chemicon), IGF1 (50 ng/ml; Chemicon) and the composition provided herein. Media are changed every other day.
Lgr5-positive cells are quantified after 10 days (D10) in culture in multiple conditions. Cell colonies are dissociated into single cells using TrypLE (Gibco). The cells are then stained with propidium iodide (PI) and are analyzed using a flow cytometer for Lgr5-GFP expression. The number of GFP-positive cells and the percentage of GFP-positive cells are quantified.

recombinant human GSK3α = recombinant human GSK3α (Homo sapiens, UniProt P49840); experiment: In vitro enzymatic assay for inhibition of GSK3α (Kinase-Glo Max luminescence); type: biochemical; conditions: 10 uM ATP, 0.1 mg/ml GSKtide, 30° C. 40 minutes, read-out: Potency Alpha
Method: as §1, §2, §3, §4

Sequence of recombinant human GSK3β (P49841 whole entry): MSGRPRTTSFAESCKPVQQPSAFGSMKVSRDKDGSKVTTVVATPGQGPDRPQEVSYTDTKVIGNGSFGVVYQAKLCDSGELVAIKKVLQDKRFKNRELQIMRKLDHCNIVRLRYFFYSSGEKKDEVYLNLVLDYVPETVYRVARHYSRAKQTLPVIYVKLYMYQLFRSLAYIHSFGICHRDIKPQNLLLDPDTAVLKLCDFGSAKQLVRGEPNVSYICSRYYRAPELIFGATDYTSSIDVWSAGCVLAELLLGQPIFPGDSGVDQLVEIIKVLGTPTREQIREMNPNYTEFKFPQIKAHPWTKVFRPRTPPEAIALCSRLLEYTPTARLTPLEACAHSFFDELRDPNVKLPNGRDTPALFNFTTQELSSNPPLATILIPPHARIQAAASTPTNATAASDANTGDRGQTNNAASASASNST
Sequence of recombinant human GSK3α (P49840 whole entry): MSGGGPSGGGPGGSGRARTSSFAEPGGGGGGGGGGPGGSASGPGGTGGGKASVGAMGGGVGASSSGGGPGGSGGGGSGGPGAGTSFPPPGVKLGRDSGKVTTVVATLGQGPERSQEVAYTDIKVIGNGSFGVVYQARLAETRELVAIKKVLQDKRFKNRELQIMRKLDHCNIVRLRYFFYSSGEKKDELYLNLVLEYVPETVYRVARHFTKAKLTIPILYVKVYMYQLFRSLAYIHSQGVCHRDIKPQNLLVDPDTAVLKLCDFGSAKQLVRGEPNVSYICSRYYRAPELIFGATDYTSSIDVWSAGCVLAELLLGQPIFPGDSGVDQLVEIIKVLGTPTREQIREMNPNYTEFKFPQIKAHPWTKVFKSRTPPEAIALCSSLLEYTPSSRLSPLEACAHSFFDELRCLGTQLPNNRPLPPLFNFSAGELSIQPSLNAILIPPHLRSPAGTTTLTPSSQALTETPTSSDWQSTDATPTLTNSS

Row | SMILES | IC50 (recombinant human GSK3β) | EC50 (Lgr5-positive cells) | IC50 (recombinant human GSK3α) | % of Cells (Lgr5-positive cells)
1 | CN1CCC2(CC1)CCN(C(=O)N1CCn3cc(C4=C(c5cnc6ccccn56)C(=O)NC4=O)c4cc(C#N)cc(c43)C1)C2 [Compound I-47] | 1 to 10 nM |  | 1 to 10 nM | 
2 | CN(C)C1CCN(C(=O)N2CCn3cc(C4=C(c5cnc6ccccn56)C(=O)NC4=O)c4cc(C#N)cc(c43)C2)CC1 [Compound I-45] | 1 to 10 nM |  | 1 to 10 nM | 
3 | O=C1NC(=O)C(c2nnc3ccccn23)=C1c1cn2c3c(cc(F)cc13)CN(C(=O)N1CCCCC1)CC2 [Compound I-28] | 1 to 10 nM |  | 1 to 10 nM | 
4 | CNCC1CCN(C(=O)N2CCn3cc(C4=C(c5cnc6ccccn56)C(=O)NC4=O)c4cc(F)cc(c43)C2)CC1 [Compound I-32] | 1 to 10 nM | > 1000 nM | 1 to 10 nM | +++ (“+++” indicates greater than about 11%)
5 | NC1CCN(C(=O)N2CCn3cc(C4=C(c5cnc6ccccn56)C(=O)NC4=O)c4cc(F)cc(c43)C2)CC1 [Compound I-34] | 1 to 10 nM | > 1000 nM | 1 to 10 nM | ++ (“++” indicates about 6-10%)
6 | O=C1NC(=O)C(c2cnc3ccccn23)=C1c1cn2c3c(cc(F)cc13)CN(C(=O)N1C[C@H]3C[C@@H]1CN3)CC2 [Compound I-13] | 1 to 10 nM | > 1000 nM | 1 to 10 nM | +++ (“+++” indicates greater than about 11%)
7 | NCC1CCN(C(=O)N2CCn3cc(C4=C(c5cnc6ccccn56)C(=O)NC4=O)c4cc(F)cc(c43)C2)CC1 [Compound I-19] | 1 to 10 nM | > 1000 nM | 1 to 10 nM | +++ (“+++” indicates greater than about 11%)
8 | O=C1NC(=O)C(c2cnc3ccccn23)=C1c1cn2c3c(cc(F)cc13)CN(C(=O)N1CCC(F)(F)CC1)CC2 [Compound I-7] | 1 to 10 nM | 1 to 100 nM | 1 to 10 nM | ++ (“++” indicates about 6-10%)
9 | O=C1NC(=O)C(c2cnc3ccccn23)=C1c1cn2c3c(cc(F)cc13)CN(C(=O)N1CC(F)(F)C(F)(F)C(F)(F)C1)CC2 [Compound I-22] | 1 to 10 nM | 1 to 100 nM | 1 to 10 nM | ++ (“++” indicates about 6-10%)
10 | CN(C)C1CCN(C(=O)N2CCn3cc(C4=C(c5cnc6ccccn56)C(=O)NC4=O)c4cc(F)cc(c43)C2)CC1 [Compound I-36] | 1 to 10 nM |  | 1 to 10 nM | 
11 | CN1CCC(CN(C)C(=O)N2CCn3cc(C4=C(c5cnc6ccccn56)C(=O)NC4=O)c4cc(F)cc(c43)C2)CC1 [Compound I-39] | 1 to 10 nM |  | 1 to 10 nM | 
12 | O=C1NC(=O)C(c2cnc3ccccn23)=C1c1cn2c3c(cc(F)cc13)CN(C(=O)N1CCC(F)(F)C(O)C1)CC2 (centres unmarked) [Compound I-25] | 1 to 10 nM |  | 1 to 10 nM | 

Further lines, with some results ahead:

Row | IC50 (recombinant human GSK3β) | EC50 (Lgr5-positive cells) | IC50 (recombinant human GSK3α) | SMILES | % of Cells (Lgr5-positive cells)
13 | 1 to 10 nM | 100 to 1000 nM | 1 to 10 nM | CN(C)CC1CCN(C(=O)N2CCn3cc(C4=C(c5cnc6ccccn56)C(=O)NC4=O)c4cc(F)cc(c43)C2)CC1 [Compound I-33] | +++ (“+++” indicates greater than about 11%)
14 | 1 to 10 nM | > 1000 nM | 1 to 10 nM | CN1CC2CC1CN2C(=O)N1CCn2cc(C3=C(c4cnc5ccccn45)C(=O)NC3=O)c3cc(F)cc(c32)C1 (centres unmarked) [Compound I-40] | + (“+” indicates about 0-5%)
15 | 1 to 10 nM | > 1000 nM | 1 to 10 nM | O=C1NC(=O)C(c2cnc3ccccn23)=C1c1cn2c3c(cc(C(F)(F)F)cc13)CN(C(=O)N1CCC(CO)CC1)CC2 [Compound I-20] | +++ (“+++” indicates greater than about 11%)
16 | 1 to 10 nM | 1 to 100 nM | 1 to 10 nM | N#Cc1cc2c3c(c1)c(C1=C(c4cnc5ccccn45)C(=O)NC1=O)cn3CCN(C(=O)N1CCCCC1)C2 [Compound I-2] | +++ (“+++” indicates greater than about 11%)
17 | 1 to 10 nM | 1 to 100 nM | 1 to 10 nM | O=C1NC(=O)C(c2cnc3ccccn23)=C1c1cn2c3c(cc(F)cc13)CN(C(=O)N1CCC(C(O)C(F)(F)F)CC1)CC2 (centres unmarked) [Compound I-31] | +++ (“+++” indicates greater than about 11%)
18 | 1 to 10 nM | 1 to 100 nM | 1 to 10 nM | O=C1NC(=O)C(c2cnc3ccccn23)=C1c1cn2c3c(cc(F)cc13)CN(C(=O)N1CCCC(F)(F)C1)CC2 [Compound I-12] | +++ (“+++” indicates greater than about 11%)
19 | 1 to 10 nM | 100 to 1000 nM | 1 to 10 nM | Nc1cc2c3c(c1)c(C1=C(c4cnc5ccccn45)C(=O)NC1=O)cn3CCN(C(=O)N1CCCCC1)C2 [Compound I-4] | +++ (“+++” indicates greater than about 11%)
20 | 1 to 10 nM | > 1000 nM | 1 to 10 nM | N#Cc1cc2c3c(c1)c(C1=C(c4cnc5ccccn45)C(=O)NC1=O)cn3CCN(C(=O)N1CC3CCC(C1)O3)C2 [Compound I-14] | + (“+” indicates about 0-5%)
21 | 1 to 10 nM | > 1000 nM | 1 to 10 nM | O=C1NC(=O)C(c2cnc3ccccn23)=C1c1cn2c3c(cc(F)cc13)CN(C(=O)NCC1CCNCC1)CC2 [Compound I-37] | + (“+” indicates about 0-5%)
22 | 1 to 10 nM | 1 to 100 nM | 1 to 10 nM | O=C1NC(=O)C(c2cnc3ccccn23)=C1c1cn2c3c(cc(F)cc13)CN(C(=O)N1CC3CCC(C1)O3)CC2 [Compound I-8] | +++ (“+++” indicates greater than about 11%)
23 | 1 to 10 nM | 1 to 100 nM | 1 to 10 nM | O=C1NC(=O)C(c2cnc3ccccn23)=C1c1cn2c3c(cc(C(F)(F)F)cc13)CN(C(=O)N1CCCCC1)CC2 [Compound I-1] | +++ (“+++” indicates greater than about 11%)
24 | 1 to 10 nM |  | 1 to 10 nM | O=C1NC(=O)C(c2cnc3ccccn23)=C1c1cn2c3c(cc(C(F)(F)F)cc13)CN(C(=O)N1CC3CCC(C1)O3)CC2 [Compound I-18] | 
25 | 1 to 10 nM |  | 1 to 10 nM | CN1CCC2(CC1)CCN(C(=O)N1CCn3cc(C4=C(c5cnc6ccccn56)C(=O)NC4=O)c4cc(F)cc(c43)C1)C2 [Compound I-42] | 
26 | 1 to 10 nM |  | 1 to 10 nM | CN1CCC(CN(C)C(=O)N2CCn3cc(C4=C(c5cnc6ccccn56)C(=O)NC4=O)c4cc(C#N)cc(c43)C2)CC1 [Compound I-46] | 

— US11066419B2, “1H-pyrrole-2,5-dione compounds and methods of using same” (Frequency Therapeutics, Inc., priority 2016, dated 2021)
